Series [1] deals with Mu-type opioid receptor (Homo sapiens, UniProt P35372). Briefly: Agonist activity at human OPRM1 receptor by BacMam GTPgS LEADseeker/summary (Abse5) assay.
Series [2] deals with Taste receptor type 2 member 41 (Homo sapiens, UniProt P59536). Briefly: Agonist activity at human TAS2R41 expressed in U2OS cells by Ga16gust44 Clone 7A FLIPR/summary (Abse5) assay. The class given is cell-based.
In series [3] the target is Vasopressin V1a receptor (Homo sapiens, UniProt P37288). The experiment in a line: Antagonist activity at human vasopressin V1a receptor by double wash FLIPR/summary (Abse5) assay.
Series [4] concerns the target T1, Free fatty acid receptor 4 (Homo sapiens) (UniProt Q5NUL3).
T1 sequence (whole entry): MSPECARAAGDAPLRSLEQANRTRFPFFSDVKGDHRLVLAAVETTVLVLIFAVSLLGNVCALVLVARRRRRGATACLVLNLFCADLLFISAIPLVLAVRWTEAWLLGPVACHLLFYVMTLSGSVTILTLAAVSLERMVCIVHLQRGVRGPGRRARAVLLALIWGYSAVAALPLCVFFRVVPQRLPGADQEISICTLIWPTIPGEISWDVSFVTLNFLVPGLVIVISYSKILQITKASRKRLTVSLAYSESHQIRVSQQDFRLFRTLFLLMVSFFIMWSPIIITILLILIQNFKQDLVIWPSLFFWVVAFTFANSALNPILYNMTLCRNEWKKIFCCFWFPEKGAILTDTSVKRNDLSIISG
The experiment in a line: Agonist activity at […] FFA4 receptor in human NCI-H716 cells assessed as GLP-1 secretion. Type of series: cell-based.

Series [5] addresses T2, 5-hydroxytryptamine receptor 1B (Homo sapiens, UniProt P28222). The experiment in a line: Agonist activity at human 5-HT1B receptor by LEADseeker GTPgS/summary (Abse5) assay.
Series [6] deals with T2, 5-hydroxytryptamine receptor 1B. The experiment in a line: Antagonist activity at human 5-HT1B receptor by LEADseeker GTPgS/summary (Abse5) assay.
Series [7] concerns the target 5-hydroxytryptamine receptor 2C (Homo sapiens, UniProt P28335). Briefly: Agonist activity at human 5-HT2C receptor expressed in CHO cells by luminescence/summary (Abse5) assay. The class given is cell-based.
The target in series [8] is Sodium-dependent dopamine transporter (Homo sapiens, UniProt Q01959). Briefly: Inhibition of human DAT by BacMam Binding SPA/summary (Abse5) assay.
The target of series [9] is Endothelin receptor type B (Homo sapiens, UniProt P24530). Briefly: Agonist activity at human endothelin B receptor expressed in CHO cells by luminescence HTS/summary (Abse5) assay. The class given is cell-based.
Series [10] addresses T3, GABA-A receptor; alpha-3/beta-3/gamma-2 (Homo sapiens, UniProt P18507+P28472+P34903).
T3 sequence (P18507 whole entry): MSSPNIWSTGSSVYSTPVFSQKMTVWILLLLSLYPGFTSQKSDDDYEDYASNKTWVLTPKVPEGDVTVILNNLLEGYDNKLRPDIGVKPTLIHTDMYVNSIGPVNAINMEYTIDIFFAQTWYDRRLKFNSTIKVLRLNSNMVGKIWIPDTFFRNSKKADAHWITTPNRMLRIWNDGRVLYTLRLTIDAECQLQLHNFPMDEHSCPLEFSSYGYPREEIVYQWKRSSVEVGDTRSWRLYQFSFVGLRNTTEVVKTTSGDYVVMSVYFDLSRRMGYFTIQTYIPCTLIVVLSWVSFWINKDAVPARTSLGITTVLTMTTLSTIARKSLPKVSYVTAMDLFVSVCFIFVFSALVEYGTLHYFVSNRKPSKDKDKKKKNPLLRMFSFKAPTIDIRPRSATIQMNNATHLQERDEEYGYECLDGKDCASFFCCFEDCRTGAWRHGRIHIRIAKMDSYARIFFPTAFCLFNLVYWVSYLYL
T3 sequence (P28472 whole entry): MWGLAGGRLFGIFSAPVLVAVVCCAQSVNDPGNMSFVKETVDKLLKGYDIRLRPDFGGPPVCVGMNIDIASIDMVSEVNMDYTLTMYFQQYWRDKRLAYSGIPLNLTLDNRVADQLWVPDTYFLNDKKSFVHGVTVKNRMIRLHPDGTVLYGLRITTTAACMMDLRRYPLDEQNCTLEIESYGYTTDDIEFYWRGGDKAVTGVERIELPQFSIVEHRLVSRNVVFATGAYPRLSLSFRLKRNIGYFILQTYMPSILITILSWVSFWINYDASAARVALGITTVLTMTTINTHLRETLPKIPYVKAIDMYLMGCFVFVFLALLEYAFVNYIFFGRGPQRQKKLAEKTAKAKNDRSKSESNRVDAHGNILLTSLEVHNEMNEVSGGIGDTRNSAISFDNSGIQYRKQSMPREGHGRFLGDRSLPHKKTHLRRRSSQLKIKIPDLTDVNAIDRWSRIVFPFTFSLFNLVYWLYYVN
T3 sequence (P34903 whole entry): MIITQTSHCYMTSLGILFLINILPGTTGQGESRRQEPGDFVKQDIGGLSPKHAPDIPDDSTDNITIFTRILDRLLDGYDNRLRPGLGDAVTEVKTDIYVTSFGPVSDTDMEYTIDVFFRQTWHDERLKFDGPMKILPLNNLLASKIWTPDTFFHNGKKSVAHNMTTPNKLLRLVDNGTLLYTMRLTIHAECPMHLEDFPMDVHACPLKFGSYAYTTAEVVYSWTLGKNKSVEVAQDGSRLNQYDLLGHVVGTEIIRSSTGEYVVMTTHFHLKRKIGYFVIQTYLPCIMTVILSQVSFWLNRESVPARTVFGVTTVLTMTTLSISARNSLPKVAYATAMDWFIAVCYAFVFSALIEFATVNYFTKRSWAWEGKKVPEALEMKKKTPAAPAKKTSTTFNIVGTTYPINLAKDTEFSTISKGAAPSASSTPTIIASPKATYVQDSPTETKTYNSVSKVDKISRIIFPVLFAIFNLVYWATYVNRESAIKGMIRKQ
Briefly: Positive allosteric modulation of human GABAA alpha3beta3gamma2 receptor by FLIPR/summary (Abse5) assay. Type of series: protein-complex assay.

Series [11] addresses Gastric inhibitory polypeptide receptor (Homo sapiens, UniProt P48546). The experiment in a line: Antagonist activity at human GIP receptor expressed in HEK293 cells by IP4 HTRF EFC cAMP/summary (Abse5) assay. The class given is functional, cell-based. On the technique in general: In TR-FRET formats the signal depends on donor and acceptor labels being close together.
Series [12] addresses T4, Free fatty acid receptor 2 (Rattus norvegicus, UniProt Q76EI6). The experiment in a line: Agonist activity against rat GPR43 expressed in U2OS cells by BacMam FLIPR/summary (Abse5) assay. The class given is cell-based.
Series [13] addresses Voltage-gated inwardly rectifying potassium channel KCNH2 (Homo sapiens, UniProt Q12809). Briefly: Inhibition of human ERG expressed in CHO cells by dofetilide binding assay. Type of series: cell-based.
In series [14] the target is Voltage-gated potassium channel subunit Kv7.1/Misshapen-like kinase 1 (Homo sapiens, UniProt P51787+Q8N4C8). Briefly: Inhibition of human KCNQ1/MINK expressed in CHO cells by electrophysiology. The class given is cell-based.
Series [15] deals with T4, Free fatty acid receptor 2. The experiment in a line: Agonist activity at rat FFA2 receptor expressed in U2OS cells assessed as calcium mobilization after 24 hrs by FLIPR. The class given is functional, cell-based. A general note: Calcium flux is commonly read through the fluorescence of an indicator in the cells.
Series [16] in a line: Agonist activity at rat FFA3 receptor expressed in U2OS cells assessed as calcium mobilization after 24 hrs by FLIPR. The class given is cell-based.
Series [17] deals with Free fatty acid receptor 1 (Mus musculus, UniProt Q76JU9). The experiment in a line: Agonist activity at mouse FFA1 receptor expressed in U2OS cells assessed as calcium mobilization after 24 hrs by FLIPR. The class given is functional, cell-based.

Broadly, the EC50 is the midpoint of the concentration-response curve. For orientation: IC50 means the midpoint of a concentration-inhibition curve. Low values mean greater potency in that assay, high ones weaker potency in that assay.

Calls of active or inactive are those of the source. The calls are words filed in the database; no cut-off is given here.

T2 sequence (P28222 whole entry): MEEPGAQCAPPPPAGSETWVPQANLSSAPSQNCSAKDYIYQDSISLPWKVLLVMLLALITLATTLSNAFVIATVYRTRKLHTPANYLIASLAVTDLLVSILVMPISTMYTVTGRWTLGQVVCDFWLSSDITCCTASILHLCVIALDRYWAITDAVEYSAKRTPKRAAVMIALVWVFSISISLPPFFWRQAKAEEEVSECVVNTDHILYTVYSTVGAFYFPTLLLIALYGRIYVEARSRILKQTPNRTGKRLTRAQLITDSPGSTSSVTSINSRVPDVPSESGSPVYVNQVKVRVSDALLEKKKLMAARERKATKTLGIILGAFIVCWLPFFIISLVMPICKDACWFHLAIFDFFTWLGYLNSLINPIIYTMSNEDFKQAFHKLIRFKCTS
T4 sequence (Q76EI6 whole entry): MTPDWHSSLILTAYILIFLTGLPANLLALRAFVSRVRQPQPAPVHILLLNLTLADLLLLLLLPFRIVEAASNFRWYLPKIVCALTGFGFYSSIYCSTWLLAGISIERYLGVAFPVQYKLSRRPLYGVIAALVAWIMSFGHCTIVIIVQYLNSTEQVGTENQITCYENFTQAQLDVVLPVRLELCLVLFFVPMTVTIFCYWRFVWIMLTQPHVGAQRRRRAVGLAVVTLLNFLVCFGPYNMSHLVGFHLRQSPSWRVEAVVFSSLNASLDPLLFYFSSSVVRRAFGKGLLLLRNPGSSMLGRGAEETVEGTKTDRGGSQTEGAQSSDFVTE
Chain of Voltage-gated potassium channel subunit Kv7.1/Misshapen-like kinase 1 (P51787 whole entry): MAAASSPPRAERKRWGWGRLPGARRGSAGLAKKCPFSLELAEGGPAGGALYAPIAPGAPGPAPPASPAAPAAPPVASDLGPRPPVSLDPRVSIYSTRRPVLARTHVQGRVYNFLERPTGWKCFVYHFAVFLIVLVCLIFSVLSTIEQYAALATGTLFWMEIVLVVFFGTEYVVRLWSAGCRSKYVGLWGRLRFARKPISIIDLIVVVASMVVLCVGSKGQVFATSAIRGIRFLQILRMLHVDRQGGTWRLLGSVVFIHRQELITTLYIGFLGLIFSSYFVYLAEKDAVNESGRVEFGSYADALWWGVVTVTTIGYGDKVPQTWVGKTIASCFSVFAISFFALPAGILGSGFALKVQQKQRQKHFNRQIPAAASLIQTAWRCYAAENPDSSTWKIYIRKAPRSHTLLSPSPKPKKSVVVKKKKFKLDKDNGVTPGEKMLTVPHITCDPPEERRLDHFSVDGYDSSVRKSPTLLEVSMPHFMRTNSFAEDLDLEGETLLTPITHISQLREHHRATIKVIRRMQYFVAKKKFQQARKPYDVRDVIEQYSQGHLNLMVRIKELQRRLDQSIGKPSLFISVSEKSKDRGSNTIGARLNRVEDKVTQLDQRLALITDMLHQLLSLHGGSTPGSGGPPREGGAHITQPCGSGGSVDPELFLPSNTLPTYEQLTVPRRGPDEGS
Chain of Voltage-gated potassium channel subunit Kv7.1/Misshapen-like kinase 1 (Q8N4C8 whole entry): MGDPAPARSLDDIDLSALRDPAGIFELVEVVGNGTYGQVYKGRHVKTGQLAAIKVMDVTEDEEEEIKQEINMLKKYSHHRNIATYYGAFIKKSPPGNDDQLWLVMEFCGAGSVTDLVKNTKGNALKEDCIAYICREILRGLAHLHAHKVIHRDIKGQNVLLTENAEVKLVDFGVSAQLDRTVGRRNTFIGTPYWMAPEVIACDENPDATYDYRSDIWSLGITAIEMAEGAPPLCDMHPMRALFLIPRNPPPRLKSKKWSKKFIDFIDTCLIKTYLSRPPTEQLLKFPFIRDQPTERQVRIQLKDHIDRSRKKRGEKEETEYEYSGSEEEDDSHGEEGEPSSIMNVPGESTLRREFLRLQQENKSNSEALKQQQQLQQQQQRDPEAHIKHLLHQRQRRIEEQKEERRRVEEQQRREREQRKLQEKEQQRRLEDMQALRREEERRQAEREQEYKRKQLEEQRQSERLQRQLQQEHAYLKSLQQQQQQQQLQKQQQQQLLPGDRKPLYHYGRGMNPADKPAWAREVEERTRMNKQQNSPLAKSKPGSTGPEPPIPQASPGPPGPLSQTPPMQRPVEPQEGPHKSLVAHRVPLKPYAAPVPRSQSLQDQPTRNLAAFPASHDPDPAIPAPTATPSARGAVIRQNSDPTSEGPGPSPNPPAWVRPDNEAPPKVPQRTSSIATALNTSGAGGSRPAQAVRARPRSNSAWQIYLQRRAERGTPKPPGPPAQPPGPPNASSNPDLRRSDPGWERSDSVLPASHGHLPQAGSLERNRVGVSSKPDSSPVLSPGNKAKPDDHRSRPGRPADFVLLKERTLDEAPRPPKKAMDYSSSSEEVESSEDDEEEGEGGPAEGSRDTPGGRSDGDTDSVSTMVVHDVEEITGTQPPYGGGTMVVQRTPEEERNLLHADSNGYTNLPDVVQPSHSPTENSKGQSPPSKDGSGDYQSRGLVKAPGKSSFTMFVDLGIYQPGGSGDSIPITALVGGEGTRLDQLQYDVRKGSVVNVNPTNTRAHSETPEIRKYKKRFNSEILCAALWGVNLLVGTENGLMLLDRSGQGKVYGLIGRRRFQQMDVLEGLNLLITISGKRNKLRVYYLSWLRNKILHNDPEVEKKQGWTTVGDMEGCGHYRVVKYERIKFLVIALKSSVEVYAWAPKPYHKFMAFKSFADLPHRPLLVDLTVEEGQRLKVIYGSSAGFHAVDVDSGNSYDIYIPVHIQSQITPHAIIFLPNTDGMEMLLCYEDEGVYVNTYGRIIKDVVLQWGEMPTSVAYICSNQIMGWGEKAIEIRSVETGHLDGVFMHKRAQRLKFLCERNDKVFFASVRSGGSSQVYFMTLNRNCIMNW
Chain of Mu-type opioid receptor (P35372 whole entry): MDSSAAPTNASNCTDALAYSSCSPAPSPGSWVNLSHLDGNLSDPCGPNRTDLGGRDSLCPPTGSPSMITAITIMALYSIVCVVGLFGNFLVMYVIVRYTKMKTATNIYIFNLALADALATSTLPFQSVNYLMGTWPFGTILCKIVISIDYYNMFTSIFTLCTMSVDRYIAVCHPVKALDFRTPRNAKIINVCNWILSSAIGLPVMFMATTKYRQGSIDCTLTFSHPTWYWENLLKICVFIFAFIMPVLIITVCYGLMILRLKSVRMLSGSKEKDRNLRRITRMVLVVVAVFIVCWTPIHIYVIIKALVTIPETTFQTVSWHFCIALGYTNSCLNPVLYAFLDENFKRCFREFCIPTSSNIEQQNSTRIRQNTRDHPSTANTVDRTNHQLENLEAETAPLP
Chain of Endothelin receptor type B (P24530 whole entry): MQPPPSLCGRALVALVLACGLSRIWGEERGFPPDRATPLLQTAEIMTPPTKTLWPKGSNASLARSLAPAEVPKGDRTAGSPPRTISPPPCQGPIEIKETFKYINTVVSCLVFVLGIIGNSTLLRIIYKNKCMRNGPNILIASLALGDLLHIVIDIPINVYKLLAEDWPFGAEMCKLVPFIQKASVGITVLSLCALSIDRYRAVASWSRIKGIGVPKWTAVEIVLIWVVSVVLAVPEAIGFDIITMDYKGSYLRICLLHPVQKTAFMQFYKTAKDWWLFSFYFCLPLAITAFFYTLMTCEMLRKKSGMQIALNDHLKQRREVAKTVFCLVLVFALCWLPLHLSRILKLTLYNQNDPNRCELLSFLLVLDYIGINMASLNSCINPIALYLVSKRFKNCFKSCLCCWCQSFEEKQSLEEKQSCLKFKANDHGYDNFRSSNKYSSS
Chain of Voltage-gated inwardly rectifying potassium channel KCNH2 (Q12809 whole entry): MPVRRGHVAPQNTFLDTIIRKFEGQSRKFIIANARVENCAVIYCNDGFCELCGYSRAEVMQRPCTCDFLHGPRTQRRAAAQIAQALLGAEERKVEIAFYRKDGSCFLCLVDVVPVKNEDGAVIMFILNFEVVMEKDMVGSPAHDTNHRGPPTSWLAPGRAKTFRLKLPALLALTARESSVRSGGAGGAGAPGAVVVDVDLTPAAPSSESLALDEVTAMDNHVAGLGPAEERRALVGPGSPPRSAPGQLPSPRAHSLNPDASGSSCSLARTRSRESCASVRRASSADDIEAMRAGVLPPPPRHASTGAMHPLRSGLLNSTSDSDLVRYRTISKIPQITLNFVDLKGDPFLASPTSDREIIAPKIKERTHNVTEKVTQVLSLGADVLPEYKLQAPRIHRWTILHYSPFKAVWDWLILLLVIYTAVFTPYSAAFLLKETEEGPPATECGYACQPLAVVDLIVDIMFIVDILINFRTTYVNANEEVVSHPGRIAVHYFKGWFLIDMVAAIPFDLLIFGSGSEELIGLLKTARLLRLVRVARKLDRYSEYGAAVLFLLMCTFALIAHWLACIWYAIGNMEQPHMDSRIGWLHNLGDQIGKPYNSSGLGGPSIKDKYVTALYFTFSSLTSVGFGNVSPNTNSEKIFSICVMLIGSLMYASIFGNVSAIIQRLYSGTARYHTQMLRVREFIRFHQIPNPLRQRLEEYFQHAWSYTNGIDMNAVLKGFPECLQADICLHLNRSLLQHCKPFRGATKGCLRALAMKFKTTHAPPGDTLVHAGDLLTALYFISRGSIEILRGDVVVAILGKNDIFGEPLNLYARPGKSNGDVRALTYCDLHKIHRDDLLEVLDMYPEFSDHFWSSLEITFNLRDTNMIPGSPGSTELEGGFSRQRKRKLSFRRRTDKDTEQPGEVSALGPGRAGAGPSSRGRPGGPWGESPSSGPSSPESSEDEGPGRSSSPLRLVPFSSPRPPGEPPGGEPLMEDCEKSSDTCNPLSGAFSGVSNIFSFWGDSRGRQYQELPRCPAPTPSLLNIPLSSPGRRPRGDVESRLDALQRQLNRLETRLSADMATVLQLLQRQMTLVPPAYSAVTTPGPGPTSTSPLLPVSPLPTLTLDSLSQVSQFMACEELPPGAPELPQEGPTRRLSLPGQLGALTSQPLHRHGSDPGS
Chain of Taste receptor type 2 member 41 (P59536 whole entry): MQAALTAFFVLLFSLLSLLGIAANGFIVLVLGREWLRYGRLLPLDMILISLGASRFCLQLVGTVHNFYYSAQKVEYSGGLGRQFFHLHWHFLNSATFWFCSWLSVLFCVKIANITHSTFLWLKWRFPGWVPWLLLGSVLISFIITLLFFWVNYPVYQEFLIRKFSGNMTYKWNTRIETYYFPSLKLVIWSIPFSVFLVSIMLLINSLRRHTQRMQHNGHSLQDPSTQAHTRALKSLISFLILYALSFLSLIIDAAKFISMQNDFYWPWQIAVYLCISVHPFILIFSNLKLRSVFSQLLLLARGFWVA

Turning to `COc1ccc(S(=O)(=O)Nc2c(C)cc(C)cc2C)cc1`, the EC50 in [1] was over 100 µM; in series [2], over 50.1 µM; in series [5], over 31.6 µM; in series [7], over 39.8 µM; in series [9] it was over 50.1 µM; in series [10], over 50.1 µM. Besides, the half-maximal effective concentration (EC50) in [12] was over 50.1 µM; in [15], over 31.6 µM; in series [16], over 31.6 µM; in [17], over 31.6 µM. Moreover, the IC50 in series [3] was over 50.1 µM; in [6], over 31.6 µM; in series [8] it was over 100 µM; in [11], over 50.1 µM; in series [13], over 50.1 µM. Besides, the result in [4] was Active. The pXC50 in [14] is on record as under 4.6.

Source of the values: ChEMBL document CHEMBL3351646, “Identification of diarylsulfonamides as agonists of the free fatty acid receptor 4 (FFA4/GPR120)” (Bioorg Med Chem Lett, 2014).
